Measurements published in US8658668B2, “PI3 kinase/mTOR dual inhibitor” (Eli Lilly and Company, priority 2011, dated 2014).

What was measured:
[1] = test system: human renal carcinoma cells 786-O; test: Xenograft tumor model, 786-O; format: in vivo, mouse; details: oral gavage
Description: Expand human glioblastoma cells U87MG and human renal carcinoma cells 786-O, in culture, harvest and inject subcutaneously onto the rear flank of athymic nude mice. Expand human non-small cell lung cancer cells NCI-H1975 in culture, harvest and inject subcutaneously onto the rear flank of CD-1 nu/nu mice. Prepare test compound in an appropriate vehicle and administer by oral gavage when tumors are established (7-21 days after implant). Tumor response is determined by tumor volume measurement performed twice a week during the course of treatment. Body weight is taken as a general measurement of toxicity.

[2] = test system: RXF 631 human tumor xenograft cells; test: Oncotest tumor clonogenic assay, RXF 631; format: cell-based; details: colony formation, Renal RXF 631, hypernephroid adeno carcinoma, wd, read-out: Absolute IC50
[3] = test system: MAXF 583 human tumor xenograft cells; test: Oncotest tumor clonogenic assay, MAXF 583; format: cell-based; details: colony formation, Mammary MAXF 583, ductual adeno carcinoma, md, read-out: Absolute IC50
[4] = Pharmacokinetic properties in dogs; format: in vivo, dog; details: for AUC: both sexes, beagle, dog, plasma, oral gavage, HEC suspension
Description: The range of administered doses is between 1 and 12 mg/kg in an HEC suspension.
Blood samples are collected into tubes containing potassium ethylenediaminetetraacetic acid from each dog at 0 (pre-dose), 0.5, 1, 2, 4, 8, and 24 hours post dose. Some studies also include samples collected at 0.25 hr and 12 hr time points. These samples are centrifuged to obtain plasma, which is subsequently frozen prior to analysis. […] The standard curves range from 1 to 5000 ng/mL. Plasma concentrations above the upper limit of quantitation are determined by dilution.

[5] = test system: pT389 p70S6K; test: In vivo target inhibition in U87MG tumors, pT389 p70S6K; details: Mus musculus, U-87 MG; for inhibition at 0.5 mg/kg: 0.5 mg/kg oral; for inhibition at 1.5 mg/kg: 1.5 mg/kg oral; for inhibition at 3 mg/kg: 3 mg/kg oral; for inhibition at 6 mg/kg: 6 mg/kg oral; for inhibition at 10 mg/kg: 10 mg/kg oral; for inhibition at 12 mg/kg: 12 mg/kg oral
Description: Implant U87MG human glioblastoma cells (5×10^6) subcutaneously into the flank of athymic nude mice in 0.2 mL of matrigel. Ten days post-implantation, dose mice orally according to a time course, single dose/single time point, or dose response protocol for the determination of TMED50 (threshold minimum effective dose). Flash freeze tumors at harvest and collect blood for the determination of parent compound plasma exposure and the calculation of TMEC50 (threshold minimum effective concentration) in the case of dose response studies. Homogenize tumors in 500 μL of XY Lysis Buffer (10 μg/mL Leupeptin, 10 μg/mL Trypsin-Chymotrypsin Inhibitor, 10 μg/mL Tosyl phenyl-alanyl chloromethyl ketone, 10 μg/mL Aprotinin, 60 mM Beta-Glycerol Phosphate, 1% Triton X100, 25 mM Tris pH 7.5, 2.5 mM Pyrophosphate, 150 mM NaCl, 2 mM p-tosyl-L-arginine methyl ester, 15 mM para-nitrophenyl phosphate, 5 mM benzamidine, 1 mM sodium vanadate, 10 mM sodium fluoride, 50 μg/mL phenyl-methane sulfonyl fluoride, 1 mM 1,4-dithiothreitol (DTT), 15 mM EDTA pH 8.0, 5 mM EGTA pH 8.0, 1 μM Microcystin, 1 μM Okadaic Acid, and 1 Roche Complete protease inhibitor mini-tablet per 10 mL) using RNase Free Pellet Pestle (Kimble-Kontes). Aliquot lysates and either assay immediately or store at −80° C. for later testing. Use the multiplex format of Meso Scale Discovery (Gaithersburg, Md.) ELISA technology and measure in vivo target inhibition of PI3K and mTOR to assess effects on phosphorylation of the threonine 308 site of AKT, a downstream effector of PI3K; phosphorylation on the threonine 389 site of p70 S6K and on the serine 240/244 site of S6RP, downstream effectors of mTORC1; phosphorylation of the serine 473 site of AKT, a downstream effector of mTORC2. Add 20 μg of lysate to carbon electrode containing 96-well plates pre-spotted with the appropriate capture antibodies. Probe the protein of interest using a ruthenium labeled detection antibody. Pass current over the electrode in the presence of read buffer containing the co-reactant TPA, and quantitate and record the light generated by electro-chemiluminescence with the MSD Sector 6000 instrument. Calculate percent inhibitions relative to the vehicle control group and perform ANOVA analysis using the JMP software package for the determination of statistical significance.

[6] = test system: MAXF 1322 human tumor xenograft cells; test: Oncotest tumor clonogenic assay, MAXF 1322; format: cell-based; details: colony formation, Mammary MAXF 1322, pap. adeno carcinoma, pd, read-out: Absolute IC50

**Q.** Which “% TGI” value ([1]; 3 mg/kg BID) does the source give for `CO[C@@H](C)Cn1c(=O)n(C)c2cnc3ccc(-c4cncc(C(C)(C)O)c4)cc3c21` [Example 1, 8-[5-(1-Hydroxy-1-methylethyl)pyridin-3-yl]-1-[(2S)-2-methoxypropyl]-3-methyl-1,3-dihydro-2H-imidazo[4,5-c]quinolin-2-one] here?
**A.** Its value is 33.9%.

**Q.** What about the “% TGI” value ([1]; 6 mg/kg BID) of the same molecule?
**A.** The value was 56.9%.

**Q.** And the “% TGI” value ([1]; 10 mg/kg BID)?
**A.** The value was 70.2%.

**Q.** And the IC50 [2]?
**A.** Its IC50 is 80 nM.

**Q.** What about the IC50 [3] of the same molecule?
**A.** Its IC50 is 88 nM.

**Q.** And the AUC ([4]; 1 mg/kg, 10 animals)?
**A.** The AUC was 1160 ng·h/mL.

**Q.** And the AUC ([4]; 3 mg/kg, 10 animals)?
**A.** Its AUC is 3780 ng·h/mL.

**Q.** What about the AUC ([4]; 4.5 mg/kg, 2 animals) of the same molecule?
**A.** Its AUC is 5920 ng·h/mL.

**Q.** And the AUC ([4]; 6 mg/kg, 2 animals)?
**A.** The AUC was 9620 ng·h/mL.

**Q.** And the AUC ([4]; 9 mg/kg, 2 animals)?
**A.** The AUC was 10800 ng·h/mL.

**Q.** And the AUC ([4]; 12 mg/kg, 2 animals)?
**A.** The AUC was 19200 ng·h/mL.

**Q.** And the “correlation of determination R^2, linear regression of the mean AUC values for each dose” value ([4]; oral, 1 to 12 mg/kg)?
**A.** Its value is 0.96.

**Q.** What about the inhibition at 0.5 mg/kg ([5]; 0.5 hr post dose) of the same molecule?
**A.** Its inhibition at 0.5 mg/kg is 62%.

**Q.** What about the inhibition at 0.5 mg/kg ([5]; 4 hr post dose) of the same molecule?
**A.** The inhibition at 0.5 mg/kg was 7%.

**Q.** And the inhibition at 1.5 mg/kg ([5]; 0.5 hr post dose)?
**A.** Its inhibition at 1.5 mg/kg is 84%.

**Q.** And the inhibition at 1.5 mg/kg ([5]; 4 hr post dose)?
**A.** Its inhibition at 1.5 mg/kg is 38%.

**Q.** What about the inhibition at 3 mg/kg ([5]; 0.25 hr post dose) of the same molecule?
**A.** Its inhibition at 3 mg/kg is 77%.

**Q.** And the inhibition at 3 mg/kg ([5]; 0.5 hr post dose)?
**A.** Its inhibition at 3 mg/kg is 89%.

**Q.** And the inhibition at 3 mg/kg ([5]; 1 hr post dose)?
**A.** Its inhibition at 3 mg/kg is 89%.

**Q.** And the inhibition at 3 mg/kg ([5]; 3 hr post dose)?
**A.** Its inhibition at 3 mg/kg is 77%.

**Q.** What about the inhibition at 3 mg/kg ([5]; 4 hr post dose) of the same molecule?
**A.** The inhibition at 3 mg/kg was 64%.

**Q.** And the inhibition at 6 mg/kg ([5]; 0.25 hr post dose)?
**A.** Its inhibition at 6 mg/kg is 88%.

**Q.** What about the inhibition at 6 mg/kg ([5]; 0.5 hr post dose) of the same molecule?
**A.** The inhibition at 6 mg/kg was 91%.

**Q.** What about the inhibition at 6 mg/kg ([5]; 1 hr post dose) of the same molecule?
**A.** Its inhibition at 6 mg/kg is 90%.

**Q.** And the inhibition at 6 mg/kg ([5]; 2 hr post dose)?
**A.** The inhibition at 6 mg/kg was 87%.

**Q.** What about the inhibition at 6 mg/kg ([5]; 4 hr post dose) of the same molecule?
**A.** Its inhibition at 6 mg/kg is 68%.

**Q.** And the inhibition at 6 mg/kg ([5]; 6 hr post dose)?
**A.** Its inhibition at 6 mg/kg is 61%.

**Q.** What about the inhibition at 6 mg/kg ([5]; 12 hr post dose) of the same molecule?
**A.** The inhibition at 6 mg/kg was 14%.

**Q.** What about the inhibition at 10 mg/kg ([5]; 0.5 hr post dose) of the same molecule?
**A.** Its inhibition at 10 mg/kg is 93%.

**Q.** What about the inhibition at 10 mg/kg ([5]; 1 hr post dose) of the same molecule?
**A.** Its inhibition at 10 mg/kg is 92%.

**Q.** What about the inhibition at 10 mg/kg ([5]; 2 hr post dose) of the same molecule?
**A.** The inhibition at 10 mg/kg was 92%.

**Q.** And the inhibition at 10 mg/kg ([5]; 4 hr post dose)?
**A.** The inhibition at 10 mg/kg was 91%.

**Q.** What about the inhibition at 10 mg/kg ([5]; 8 hr post dose) of the same molecule?
**A.** The inhibition at 10 mg/kg was 55%.

**Q.** What about the inhibition at 12 mg/kg ([5]; 0.5 hr post dose) of the same molecule?
**A.** Its inhibition at 12 mg/kg is 92%.

**Q.** And the inhibition at 12 mg/kg ([5]; 4 hr post dose)?
**A.** Its inhibition at 12 mg/kg is 90%.

**Q.** And the IC50 [6]?
**A.** Its IC50 is 3 nM.
